Patent US9884063B2, “Amido-substituted azole compounds” (Bayer Pharma Aktiengesellschaft, priority 2014, dated 2018)

Tests used:
TNKS2 = target: T1, TNKS2 (Homo sapiens, UniProt Q9H2K2); experiment: Modified TNKS2 Assay 3 (BPS kit #80578, biotin-NAD+, 96 well); assay type: biochemical; conditions: human TNKS2, BPS kit #80578, 96 well
T1 sequence (Q9H2K2 1-1166): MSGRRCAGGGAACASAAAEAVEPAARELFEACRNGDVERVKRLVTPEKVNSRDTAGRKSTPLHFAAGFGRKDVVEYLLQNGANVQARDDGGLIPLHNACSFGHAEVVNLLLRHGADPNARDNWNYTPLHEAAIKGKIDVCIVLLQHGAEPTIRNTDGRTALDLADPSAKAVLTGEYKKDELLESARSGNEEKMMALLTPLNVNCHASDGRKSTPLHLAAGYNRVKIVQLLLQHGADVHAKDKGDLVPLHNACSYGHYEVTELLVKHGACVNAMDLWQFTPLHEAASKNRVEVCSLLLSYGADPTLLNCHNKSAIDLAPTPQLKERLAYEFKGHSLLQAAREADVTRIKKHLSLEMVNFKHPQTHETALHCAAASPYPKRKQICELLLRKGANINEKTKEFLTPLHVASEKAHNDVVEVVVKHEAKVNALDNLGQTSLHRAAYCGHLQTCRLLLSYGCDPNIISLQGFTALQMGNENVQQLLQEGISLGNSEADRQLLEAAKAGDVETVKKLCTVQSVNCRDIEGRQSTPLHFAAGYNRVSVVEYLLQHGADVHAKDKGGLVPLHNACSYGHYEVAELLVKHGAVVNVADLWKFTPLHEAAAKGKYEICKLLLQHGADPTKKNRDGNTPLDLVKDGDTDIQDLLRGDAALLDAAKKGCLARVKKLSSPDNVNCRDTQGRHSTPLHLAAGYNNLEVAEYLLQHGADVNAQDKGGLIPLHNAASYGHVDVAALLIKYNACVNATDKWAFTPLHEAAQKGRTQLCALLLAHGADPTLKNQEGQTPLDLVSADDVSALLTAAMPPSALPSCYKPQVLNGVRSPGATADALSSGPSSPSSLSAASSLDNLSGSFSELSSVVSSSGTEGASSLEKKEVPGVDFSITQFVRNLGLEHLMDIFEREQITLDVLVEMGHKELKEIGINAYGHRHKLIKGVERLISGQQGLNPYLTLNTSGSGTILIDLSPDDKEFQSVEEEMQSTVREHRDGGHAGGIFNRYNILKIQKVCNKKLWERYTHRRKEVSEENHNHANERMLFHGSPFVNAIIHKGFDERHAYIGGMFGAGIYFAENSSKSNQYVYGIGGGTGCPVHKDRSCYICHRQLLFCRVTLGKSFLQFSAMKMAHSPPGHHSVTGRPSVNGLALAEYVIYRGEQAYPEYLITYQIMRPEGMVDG
In short: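 Commercial kit assay measuring TNKS2-catalysed incorporation of biotin-labelled NAD+ into a protein substrate, detected by streptavidin-HRP chemiluminescence. Run per manufacturer's protocol; IC50 is the concentration halving the normalised signal.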

[1] = system: wildtype Wnt signaling cascade; experiment: HEK293 TOP Assay (Super TopFlash luciferase reporter, Wnt-3a stimulated); assay type: cell-based
In short: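 HEK293 cells stably carrying Super TopFlash (TOP) or FOP reporter, stimulated with recombinant human Wnt-3a (2500–5 ng/ml, two-fold steps). Both lines incubated in parallel with compound from 50 μM to 15 nM (3.16-fold) in CAFTY buffer pH 7.4 with 2 mM Ca2+ and 0.01% BSA; selectivity judged TOP vs FOP.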

[2] = Homo sapiens, HEK293, 16 h, HEK293 TOP reporter cell line, Wnt-3a at EC50, 16 hours incubation, compound dilution series 50 μM to 15 nM
[3] = Homo sapiens, HEK293, 16 h, HEK293 TOP reporter cells, Wnt3a at EC50, 16 hours, luciferase

| Structure (SMILES) | IC50 (TNKS2) [µM] | IC50 [1, 2] [µM] | IC50 [1, 3] [µM] | IC50 ([1]; HEK293 TOP reporter cell line, Wnt-3a at EC50, 16 hours incubation, compound dilution series 50 μM to 15 nM) [µM] |
| --- | --- | --- | --- | --- |
| CC(C)[C@@H](C)NC(=O)c1[nH]cnc1C(=O)Nc1ccc(NC(=O)c2ccc(F)cc2Cl)cc1 [Example 134, N^4-{4-[(2-chloro-4-fluorobenzoyl)amino]phenyl}-N^5-[(2R)-3-methylbutan-2-yl]-1H-imidazole-4,5-dicarboxamide] | 0.51 | 0.64 | – | – |
| COc1cc(NC(=O)c2[nH]cnc2C(=O)NCCN2CCCCC2)ccc1NC(=O)c1ccccc1Cl [Example 101, N^5-{4-[(2-chlorobenzoyl)amino]-3-methoxyphenyl}-N^4-[2-(piperidin-1-yl)ethyl]-1H-imidazole-4,5-dicarboxamide] | 0.01 | 0.22 | – | – |
| CNC(=O)c1nc[nH]c1C(=O)Nc1ccc(NC(=O)c2ccccc2Cl)c(OC)c1 [Example 99, N^5-{4-[(2-chlorobenzoyl)amino]-3-methoxyphenyl}-N^4-methyl-1H-imidazole-4,5-dicarboxamide] | 0.09 | 0.54 | – | – |
| CNC(=O)c1nc[nH]c1C(=O)Nc1ccc(NC(=O)c2ccccc2Br)cc1 [Example 37, N^5-{4-[(2-bromobenzoyl)amino]phenyl}-N^4-methyl-1H-imidazole-4,5-dicarboxamide] | 0.26 | 0.33 | 0.33 | – |
| O=C(Nc1ccc(NC(=O)c2[nH]cnc2C(=O)NCCN2CCCCC2)cc1)c1cc(OC(F)(F)F)ccc1Br [Example 63, N^5-(4-{[2-bromo-5-(trifluoromethoxy)benzoyl]amino}phenyl)-N^4-[2-(piperidin-1-yl)ethyl]-1H-imidazole-4,5-dicarboxamide] | 0.004 | 0.11 | – | – |
| COC(=O)c1nc[nH]c1C(=O)Nc1ccc(NC(=O)c2ccccc2Cl)c(OC)c1 [Example 98, methyl 5-({4-[(2-chlorobenzoyl)amino]-3-methoxyphenyl}carbamoyl)-1H-imidazole-4-carboxylate] | – | 1.15 | – | – |
| CC(CN1CCOCC1)NC(=O)c1[nH]cnc1C(=O)Nc1ccc(NC(=O)c2ccc(F)cc2)cc1 (single isomer, unassigned; enantiomer 2) [Example 296, N^4-{4-[(4-fluorobenzoyl)amino]phenyl}-N^5-[1-(morpholin-4-yl)propan-2-yl]-1H-imidazole-4,5-dicarboxamide (enantiomer 2)] | > 0.5 | – | – | 6.45 |
| COc1cc(NC(=O)c2[nH]cnc2C(=O)NCCN(C)C)ccc1NC(=O)c1ccc(F)cc1Cl [Example 96, N^5-{4-[(2-chloro-4-fluorobenzoyl)amino]-3-methoxyphenyl}-N^4-[2-(dimethylamino)ethyl]-1H-imidazole-4,5-dicarboxamide] | – | 0.31 | – | – |
| CN(C)CCNC(=O)c1nc[nH]c1C(=O)Nc1ccc(NC(=O)c2ccccc2Cl)nc1 [Example 113, N^5-{6-[(2-chlorobenzoyl)amino]pyridin-3-yl}-N^4-[2-(dimethylamino)ethyl]-1H-imidazole-4,5-dicarboxamide] | – | 0.46 | – | – |
| COc1cc(NC(=O)c2[nH]cnc2C(=O)NCCN(C)C)ccc1NC(=O)c1ccccc1Cl [Example 100, N^5-{4-[(2-chlorobenzoyl)amino]-3-methoxyphenyl}-N^4-[2-(dimethylamino)ethyl]-1H-imidazole-4,5-dicarboxamide] | – | 0.79 | – | – |
| Cc1cc(NC(=O)c2[nH]cnc2C(=O)NCCN2CCCCC2)ccc1NC(=O)c1ccccc1Cl [Example 89, N^5-{4-[(2-chlorobenzoyl)amino]-3-methylphenyl}-N^4-[2-(piperidin-1-yl)ethyl]-1H-imidazole-4,5-dicarboxamide] | – | 0.6 | – | – |
| CNC(=O)c1[nH]c(C(C)C)nc1C(=O)Nc1ccc(NC(=O)c2ccc(F)cc2Cl)cc1 [Example 106, N^4-{4-[(2-chloro-4-fluorobenzoyl)amino]phenyl}-2-isopropyl-N^5-methyl-1H-imidazole-4,5-dicarboxamide] | – | 27 | – | – |
| CNC(=O)c1nc[nH]c1C(=O)Nc1ccc(NC(=O)c2ccccc2Cl)nc1 [Example 112, N^5-{6-[(2-chlorobenzoyl)amino]pyridin-3-yl}-N^4-methyl-1H-imidazole-4,5-dicarboxamide] | – | 2.55 | – | – |
| COC(=O)c1nc[nH]c1C(=O)Nc1ccc(NC(=O)c2ccc(F)cc2Cl)c(OC)c1 [Example 94, methyl 5-({4-[(2-chloro-4-fluorobenzoyl)amino]-3-methoxyphenyl}carbamoyl)-1H-imidazole-4-carboxylate] | – | 0.83 | – | – |
| COC(=O)c1nc[nH]c1C(=O)Nc1ccc(NC(=O)c2ccccc2Cl)c(C)c1 [Example 86, methyl-5-({4-[(2-chlorobenzoyl)amino]-3-methylphenyl}carbamoyl)-1H-imidazole-4-carboxylate] | – | 0.42 | – | – |
| COC(=O)c1nc[nH]c1C(=O)Nc1ccc(NC(=O)c2ccc(F)cc2)c(OC)c1 [Example 102, methyl 5-({4-[(4-fluorobenzoyl)amino]-3-methoxyphenyl}carbamoyl)-1H-imidazole-4-carboxylate] | – | 50 | – | – |

Results, then the molecule that gave them:

| IC50 (TNKS2) [µM] | IC50 [1, 2] [µM] | IC50 [1, 3] [µM] | IC50 ([1]; HEK293 TOP reporter cell line, Wnt-3a at EC50, 16 hours incubation, compound dilution series 50 μM to 15 nM) [µM] | Structure (SMILES) |
| --- | --- | --- | --- | --- |
| 0.0007 | 0.09 | – | – | CCN1CCC[C@H]1CNC(=O)c1nc[nH]c1C(=O)Nc1ccc(NC(=O)c2ccc(F)cc2Cl)cc1 [Example 404, N^5-{4-[(2-chloro-4-fluorobenzoyl)amino]phenyl}-N^4-{[(2S)-1-ethylpyrrolidin-2-yl]methyl}-1H-imidazole-4,5-dicarboxamide] |
| 0.19 | 0.67 | – | – | O=C(Nc1ccc(NC(=O)c2ocnc2C(=O)NCCN2CC[C@@H](F)C2)cc1)c1ccc(F)cc1Cl [Example 222, N^5-{4-[(2-chloro-4-fluorobenzoyl)amino]phenyl}-N^4-{2-[(3R)-3-fluoropyrrolidin-1-yl]ethyl}-1,3-oxazole-4,5-dicarboxamide] |
| 0.003 | 0.13 | – | – | CC1CCCN(CCNC(=O)c2[nH]cnc2C(=O)Nc2ccc(NC(=O)c3ccccc3Cl)cc2)C1 (stereo not drawn) [Example 210, N^4-{4-[(2-chlorobenzoyl)amino]phenyl}-N^5-[2-(3-methylpiperidin-1-yl)ethyl]-1H-imidazole-4,5-dicarboxamide] |
| 0.02 | 0.13 | 0.13 | – | COC(=O)c1nc[nH]c1C(=O)Nc1ccc(NC(=O)c2ccc(F)cc2Cl)cc1 [Example 13, Methyl 5-({4-[(2-chloro-4-fluorobenzoyl)amino]phenyl}carbamoyl)-1H-imidazole-4-carboxylate] |
| 0.36 | 0.8 | – | – | CNC(=O)c1[nH]c(C)nc1C(=O)Nc1ccc(NC(=O)c2ccc(F)cc2Cl)cc1 [Example 65, N^4-{4-[(2-chloro-4-fluorobenzoyl)amino]phenyl}-N^5,2-dimethyl-1H-imidazole-4,5-dicarboxamide] |
| 0.15 | 0.26 | – | – | CCNC(=O)c1[nH]cnc1C(=O)Nc1ccc(NC(=O)c2ccc(F)cc2Cl)cc1 [Example 138, N^4-{4-[(2-chloro-4-fluorobenzoyl)amino]phenyl}-N^5-ethyl-1H-imidazole-4,5-dicarboxamide] |
| 0.02 | 0.75 | – | – | CNCCNC(=O)c1[nH]cnc1C(=O)Nc1ccc(NC(=O)c2ccc(F)cc2Cl)cc1 [Example 287, N^4-{4-[(2-chloro-4-fluorobenzoyl)amino]phenyl}-N^5-[2-(methylamino)ethyl]-1H-imidazole-4,5-dicarboxamide] |
| 0.02 | 0.36 | – | – | CC1CCN(CCCNC(=O)c2nc[nH]c2C(=O)Nc2ccc(NC(=O)c3ccc(F)cc3Cl)cc2)CC1 [Example 400, N^5-{4-[(2-chloro-4-fluorobenzoyl)amino]phenyl}-N^4-[3-(4-methylpiperidin-1-yl)propyl]-1H-imidazole-4,5-dicarboxamide] |
| > 0.5 | 5 | – | – | CC(C)c1nc(C(=O)Nc2ccc(NC(=O)c3ccc(F)cc3Cl)cc2)c(C(=O)NCCN2CCCCC2)[nH]1 [Example 108, N^4-{4-[(2-chloro-4-fluorobenzoyl)amino]phenyl}-2-isopropyl-N^5-[2-(piperidin-1-yl)ethyl]-1H-imidazole-4,5-dicarboxamide] |
